# Test results reported in US10213429B2, “Imidazo-pyrazinyl derivatives useful as soluble guanylate cyclase activators” (Merck Sharp & Dohme Corp., priority 2015, dated 2019).
# What was measured:
# sGC α1/β1 heterodimer = biological target: T1, sGC α1/β1 heterodimer (Homo sapiens, UniProt Q02108+Q02153); test: Cell-Based sGC Functional Assay (CASA Assay), cGMP by HTRF in CHO-K1/sGC cells; conditions: for Emax: CHO-K1, percent activation relative to maximum cGMP production of Compound A (= 100%), read-out: % Act.; for EC50: cGMP production, 1 hr at 37° C., 4P fit, presence or absence of 1 μM DETA-NO not given, read-out: IP (nM) (inflection point)
# T1 construct: expressed in transfected cells; host or cells: CHO-K1 (clone #7, CHO-K1/sGC)
# T1 sequence (Q02108 1-690): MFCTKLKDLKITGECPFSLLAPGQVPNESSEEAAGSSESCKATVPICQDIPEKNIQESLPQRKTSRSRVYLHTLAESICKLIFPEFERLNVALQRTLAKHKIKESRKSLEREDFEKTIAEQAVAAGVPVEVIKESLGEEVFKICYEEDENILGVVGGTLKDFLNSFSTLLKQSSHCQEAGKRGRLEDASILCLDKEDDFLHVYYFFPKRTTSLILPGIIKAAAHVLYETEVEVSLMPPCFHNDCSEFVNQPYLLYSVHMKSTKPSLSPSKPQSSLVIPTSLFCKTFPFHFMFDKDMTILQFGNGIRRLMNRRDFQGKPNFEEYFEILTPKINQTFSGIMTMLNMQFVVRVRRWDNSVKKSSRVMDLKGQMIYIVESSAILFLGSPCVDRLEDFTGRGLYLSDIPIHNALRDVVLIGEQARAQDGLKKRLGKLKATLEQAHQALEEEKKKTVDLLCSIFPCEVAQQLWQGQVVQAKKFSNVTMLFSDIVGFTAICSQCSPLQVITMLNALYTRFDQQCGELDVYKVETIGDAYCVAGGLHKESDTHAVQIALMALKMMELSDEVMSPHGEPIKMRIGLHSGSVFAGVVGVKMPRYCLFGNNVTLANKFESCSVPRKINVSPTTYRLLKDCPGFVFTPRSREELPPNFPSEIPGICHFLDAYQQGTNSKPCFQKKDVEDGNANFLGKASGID
# T1 sequence (Q02153 1-619): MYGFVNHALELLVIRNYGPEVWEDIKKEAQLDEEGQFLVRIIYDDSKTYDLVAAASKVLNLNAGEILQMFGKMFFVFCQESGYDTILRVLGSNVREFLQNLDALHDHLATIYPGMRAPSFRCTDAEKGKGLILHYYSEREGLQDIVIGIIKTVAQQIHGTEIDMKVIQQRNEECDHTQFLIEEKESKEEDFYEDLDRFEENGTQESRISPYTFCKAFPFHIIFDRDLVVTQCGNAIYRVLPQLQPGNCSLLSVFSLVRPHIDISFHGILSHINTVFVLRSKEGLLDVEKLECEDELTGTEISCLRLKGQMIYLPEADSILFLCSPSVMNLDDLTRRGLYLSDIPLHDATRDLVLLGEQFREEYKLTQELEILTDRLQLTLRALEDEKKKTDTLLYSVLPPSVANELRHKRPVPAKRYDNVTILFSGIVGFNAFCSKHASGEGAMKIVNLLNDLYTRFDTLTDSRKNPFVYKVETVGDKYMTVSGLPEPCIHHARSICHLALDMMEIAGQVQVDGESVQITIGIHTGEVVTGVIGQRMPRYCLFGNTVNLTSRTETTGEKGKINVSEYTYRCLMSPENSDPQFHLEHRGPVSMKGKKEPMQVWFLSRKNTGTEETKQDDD
# Method in brief: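 CHO-K1 cells stably expressing human sGC α1/β1, in EBSS buffer with 5 mM MgCl2, 10 mM HEPES, 0.05% BSA and 0.5 mM IBMX, incubated with compound (2.5% DMSO) ± 1 μM DETA-NO, 1 h, 37 °C. Intracellular cGMP read by HTRF; activity as % of reference activator maximum, IP from 4-parameter fit.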
# [1] = tested on: Spontaneously hypertensive rats (SHR); test: Acute Efficacy in Spontaneously Hypertensive Rats (SHR), telemetry blood pressure; format: in vivo, rat; conditions: SHR male
# Excerpt: Acute Efficacy in Spontaneously Hypertensive Rats (SHR)
# Spontaneously hypertensive rats (SHR, male, Charles River) were implanted with DSI TA11PA-C40 telemetry device (Data Sciences, Inc., St. Paul, Minn.) under isoflurane or ketamine/metomidine anesthesia. The telemetry unit catheter was inserted into the descending aorta via the femoral artery and the telemetry device was implanted subcutaneously in the left flank area. Animals were allowed to recover from surgery for 14 days before the start of any studies. Blood pressure, heart rate, and activity signals from conscious, freely moving rats were recorded continuously for 30 seconds every 10 minutes. On the day prior to administration of compound, a single oral dose of vehicle (10% transcutol/20% Cremophor/70% water) was administered to all animals to establish baseline control data. The blood pressure lowering efficacy of compound (PO) or vehicle was evaluated following a single oral gavage. Data were collected as hourly averages, and changes in blood pressure were calculated by subtracting control baseline data on an hourly basis. Animals were maintained on normal diet with a 12 hour light-dark cycle.
# Maximum peak decreases of systolic blood pressure (SBP) in SHR at a particular P.O. dose (mpk milligrams per kilogram) for the following representative compounds are provided. • Category A=SBP in SHRs<20 mmHg; Category B=SBP in SHRs 20-40 mmHg; • Category C=SBP in SHRs>40 mmHg
SMILES,Emax (sGC α1/β1 heterodimer) [%],EC50 (sGC α1/β1 heterodimer) [nM],Cat. (maximum peak decrease of systolic blood pressure (SBP) in SHR) ([1]; single oral dose 0.3 mpk P.O.),Cat. (maximum peak decrease of systolic blood pressure (SBP) in SHR) ([1]; single oral dose 3.0 mpk P.O.),Cat. (maximum peak decrease of systolic blood pressure (SBP) in SHR) ([1]; single oral dose 1.0 mpk P.O.),Cat. (maximum peak decrease of systolic blood pressure (SBP) in SHR) ([1]; single oral dose 2.0 mpk P.O.)
"CC1(c2ccc(Cl)cn2)C(=O)Nc2nc(-c3cn4ccnc4c(CC4CCC4)n3)nc(O)c21 (stereo not drawn) [Example 27A, 5-(5-chloropyridin-2-yl)-2-(8-(cyclobutylmethyl)imidazo [1,2-a]pyrazin-6-yl)-4-hydroxy-5-methyl-5H-pyrrolo[2,3-d]pyrimidin-6(7H)-one]",95,645,–,B (Category B=SBP in SHRs 20-40 mmHg),–,–
"CC1(c2ccc(F)cn2)C(=O)Nc2nc(-c3cn4ccnc4c(CC4CCC4)n3)nc(O)c21 (stereo not drawn) [Example 31B, 2-(8-(cyclobutylmethyl)imidazo [1,2-a]pyrazin-6-yl)-5-(5-fluoropyridin-2-yl)-4-hydroxy-5-methyl-5H-pyrrolo[2,3-d]pyrimidin-6(7H)-one]",82,459,–,B (Category B=SBP in SHRs 20-40 mmHg),–,–
"CC1(c2ccc(F)cn2)C(=O)Nc2nc(-c3cn4ccnc4c(CCCC(F)(F)F)n3)nc(O)c21 (stereo not drawn) [Example 32B, 5-(5-fluoropyridin-2-yl)-4-hydroxy-5-methyl-2-(8-(4,4,4-trifluorobutyl)imidazo[1,2-a]pyrazin-6-yl)-5H-pyrrolo[2,3-d]pyrimidin-6(7H)-one]",115,880,–,–,B (Category B=SBP in SHRs 20-40 mmHg),–
"CC1(c2ccc(Cl)cn2)C(=O)Nc2nc(-c3cn4ccnc4c(CCCC(F)(F)F)n3)nc(O)c21 (stereo not drawn) [Example 28A, 5-(5-chloropyridin-2-yl)-4-hydroxy-5-methyl-2-(8-(4,4,4-trifluorobutyl)imidazo[1,2-a]pyrazin-6-yl)-5H-pyrrolo[2,3-d]pyrimidin-6(7H)-one]",95,245,–,–,A (Category A=SBP in SHRs<20 mmHg),–
"CC1(c2ccc(F)cc2)C(=O)Nc2nc(-c3cn4ccnc4c(Cc4ccc(F)cc4)n3)nc(O)c21 (stereo not drawn) [Example 81A, 2-(8-(4-fluorobenzyl)imidazo[1,2-a]pyrazin-6-yl)-5-(4-fluorophenyl)-4-hydroxy-5-methyl-5H-pyrrolo[2,3-d]pyrimidin-6(7H)-one]",104,144,–,–,B (Category B=SBP in SHRs 20-40 mmHg),–
"CC1(c2ccc(F)cc2)C(=O)Nc2nc(-c3cn4ccnc4c(CCC(F)(F)C(F)(F)F)n3)ncc21 (stereo not drawn) [Example 1A, 5-(4-Fluorophenyl)-5-methyl-2-(8-(3,3,4,4,4-pentafluorobutyl)imidazo[1,2-a]pyrazin-6-yl)-5H-pyrrolo[2,3-d]pyrimidin-6(7H)-one]",121,228,–,–,B (Category B=SBP in SHRs 20-40 mmHg),–
"CCCCc1nc(-c2nc(O)c3c(n2)NC(=O)C3(c2ccc(Cl)cc2)C2CC2)cn2ccnc12 (stereo not drawn) [Example 23B, 2-(8-butylimidazo[1,2-a]pyrazin-6-yl)-5-(4-chlorophenyl)-5-cyclopropyl-4-hydroxy-5H-pyrrolo[2,3-d]pyrimidin-6(7H)-one]",146,204,–,–,A (Category A=SBP in SHRs<20 mmHg),–
"CC1(c2ccc(F)cn2)C(=O)Nc2nc(-c3cn4ccnc4c(CCCC(F)(F)F)n3)ncc21 (stereo not drawn) [Example 66B, 5-(5-fluoropyridin-2-yl)-5-methyl-2-(8-(4,4,4-trifluorobutyl)imidazo[1,2-a]pyrazin-6-yl)-5H-pyrrolo[2,3-d]pyrimidin-6(7H)-one]",125,217,–,–,A (Category A=SBP in SHRs<20 mmHg),–
"CC(C)Cc1nc(-c2ncc3c(n2)NC(=O)C3(C)c2ccc(Cl)cn2)cn2ccnc12 (stereo not drawn) [Example 41A, 5-(5-chloropyridin-2-yl)-2-(8-isobutylimidazo[1,2-a]pyrazin-6-yl)-5-methyl-5H-pyrrolo[2,3-d]pyrimidin-6(7H)-one]",111,235,–,A (Category A=SBP in SHRs<20 mmHg),–,–

# Stronger by EC50 (sGC α1/β1 heterodimer), values ahead:
Emax (sGC α1/β1 heterodimer) [%],EC50 (sGC α1/β1 heterodimer) [nM],SMILES,Cat. (maximum peak decrease of systolic blood pressure (SBP) in SHR) ([1]; single oral dose 0.3 mpk P.O.),Cat. (maximum peak decrease of systolic blood pressure (SBP) in SHR) ([1]; single oral dose 3.0 mpk P.O.),Cat. (maximum peak decrease of systolic blood pressure (SBP) in SHR) ([1]; single oral dose 1.0 mpk P.O.),Cat. (maximum peak decrease of systolic blood pressure (SBP) in SHR) ([1]; single oral dose 2.0 mpk P.O.)
167,106,"CC1(C(=O)NC2CC2)C(=O)Nc2nc(-c3cn4ccnc4c(Cc4ccc(F)cc4)n3)ncc21 (single isomer, unassigned) [Example 67A, N-Cyclopropyl-2-(8-(4-fluorobenzyl)imidazo[1,2-a]pyrazin-6-yl)-5-methyl-6-oxo-6,7-dihydro-5H-pyrrolo[2,3-d]pyrimidine-5-carboxamide]",–,–,B (Category B=SBP in SHRs 20-40 mmHg),–
120,74,"O=C1Nc2nc(-c3cn4ccnc4c(CCCC(F)(F)F)n3)ncc2C1(c1ccc(Cl)cn1)C1CC1 (stereo not drawn) [Example 9A, 5-(5-chloropyridin-2-yl)-5-cyclopropyl-2-(8-(4,4,4-trifluorobutyl)imidazo[1,2-a]pyrazin-6-yl)-5H-pyrrolo[2,3-d]pyrimidin-6(7H)-one]",–,–,–,B (Category B=SBP in SHRs 20-40 mmHg)
109,57,"CC1(c2ccc(F)cc2)C(=O)Nc2nc(-c3cn4ccnc4c(CCC(F)(F)C(F)(F)F)n3)nc(C(N)=O)c21 (stereo not drawn) [Example 86A, 5-(4-Fluorophenyl)-5-methyl-6-oxo-2-(8-(3,3,4,4,4-pentafluorobutyl)imidazo[1,2-a]pyrazin-6-yl)-6,7-dihydro-5H-pyrrolo[2,3-d]pyrimidine-4-carboxamide]",–,–,B (Category B=SBP in SHRs 20-40 mmHg),–
118,34,"CC1(c2ccc(Cl)cc2)C(=O)Nc2nc(-c3cn4ccnc4c(CCC(F)(F)C(F)(F)F)n3)ncc21 (stereo not drawn) [Example 3A, 5-(4-chlorophenyl)-5-methyl-2-(8-(3,3,4,4,4-pentafluorobutyl)imidazo[1,2-a]pyrazin-6-yl)-5H-pyrrolo[2,3-d]pyrimidin-6(7H)-one]",–,–,B (Category B=SBP in SHRs 20-40 mmHg),–
137,21,"O=C1Nc2nc(-c3cn4ccnc4c(CCCC(F)(F)F)n3)ncc2C1(c1ccc(F)cn1)C1CC1 (stereo not drawn) [Example 54A, 5-cyclopropyl-5-(5-fluoropyridin-2-yl)-2-(8-(4,4,4-trifluorobutyl)imidazo[1,2-a]pyrazin-6-yl)-5H-pyrrolo[2,3-d]pyrimidin-6(7H)-one]",–,–,A (Category A=SBP in SHRs<20 mmHg),–
124,4,"CC1(c2ccc(Cl)cn2)C(=O)Nc2nc(-c3cn4ccnc4c(Cc4ccc(F)cc4)n3)ncc21 (stereo not drawn) [Example 42A, 5-(5-chloropyridin-2-yl)-2-(8-(4-fluorobenzyl)imidazo[1,2-a]pyrazin-6-yl)-5-methyl-5H-pyrrolo[2,3-d]pyrimidin-6(7H)-one]",B (Category B=SBP in SHRs 20-40 mmHg),–,–,–
